Assay results: ChEMBL document CHEMBL1201862, “PubChem BioAssay data set” (2004)
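1) Cells in 96-well plates. 2) Compound, 48 h, 5 concentrations. 3) Linear interpolation between surrounding doses. 4) Unreached endpoint = highest concentration. Here, GI50 denotes the concentration required for 50% inhibition of growth.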 Active and inactive are the calls of the source. Rule as the data show it: active = GI50 up to about 1.1 µM and inactive = higher.

Legend:
Experiment in all cases: NCI tumour cell line growth inhibition, 48 h
MOLT-4 = system: MOLT-4
COLO 205 = system: COLO 205
NCI-H460 = system: NCI-H460
SW-620 = system: SW-620
SK-MEL-28 = system: SK-MEL-28
UACC-62 = system: UACC-62
NCI-H23 = system: NCI-H23
A498 = system: A498
LOX IMVI = system: LOX IMVI
SNB-19 = system: SNB-19
SK-MEL-5 = system: SK-MEL-5
HL-60 = system: HL-60
Malme-3M = system: Malme-3M
RPMI-8226 = system: RPMI-8226
HCC 2998 = system: HCC 2998
IGROV-1 = system: IGROV-1
M14 = system: M14

Measured: GI50

Cc1ccc(SSc2ccc(C)cc2C(=O)O)c(C(=O)O)c1
inactive: MOLT-4 > 100 µM | COLO 205 > 100 µM | NCI-H460 > 100 µM | SW-620 > 100 µM | SK-MEL-28 > 100 µM | UACC-62 > 100 µM | NCI-H23 > 100 µM | A498 > 100 µM | LOX IMVI > 100 µM | SNB-19 > 100 µM | SK-MEL-5 > 100 µM | HL-60 > 100 µM | Malme-3M > 100 µM

CCC(CO)Nc1nc2c(c(=O)n(C)c(=O)n2C)n1CCO (stereo unspecified)
inactive: RPMI-8226 > 100 µM | MOLT-4 > 100 µM | COLO 205 > 100 µM | SW-620 > 100 µM | HCC 2998 > 100 µM | SK-MEL-28 > 100 µM | UACC-62 > 100 µM | NCI-H23 > 100 µM | SNB-19 > 100 µM | SK-MEL-5 > 100 µM | IGROV-1 > 100 µM | Malme-3M > 100 µM

COc1ccc(C(=O)O)c(Br)c1OCc1ccccc1
inactive: RPMI-8226 > 100 µM | MOLT-4 > 100 µM | COLO 205 > 100 µM | NCI-H460 > 100 µM | SW-620 > 100 µM | SK-MEL-28 > 100 µM | UACC-62 > 100 µM | NCI-H23 > 100 µM | A498 > 100 µM | LOX IMVI > 100 µM | SNB-19 > 100 µM | SK-MEL-5 > 100 µM | IGROV-1 > 100 µM | HL-60 > 100 µM | M14 > 100 µM

COC1CC(OS(=O)(=O)c2ccc(C)cc2)C(OS(=O)(=O)c2ccc(C)cc2)C(COS(=O)(=O)c2ccc(C)cc2)O1 (stereo unspecified)
inactive: RPMI-8226 19.4 µM | MOLT-4 > 100 µM | COLO 205 37.9 µM | NCI-H460 4.3 µM | SW-620 15.6 µM | HCC 2998 12.8 µM | SK-MEL-28 2.98 µM | UACC-62 5.61 µM | NCI-H23 2.92 µM | SNB-19 2.22 µM | SK-MEL-5 4.85 µM | IGROV-1 4.89 µM | HL-60 30.1 µM | M14 5.22 µM | Malme-3M 2.39 µM

CC(=O)NC(CCCN(Cc1ccccc1)C(=O)N(C)N=O)C(=O)NCc1ccccc1 (stereo unspecified)
inactive: RPMI-8226 > 100 µM | MOLT-4 57.1 µM | COLO 205 > 100 µM | NCI-H460 > 100 µM | SW-620 > 100 µM | HCC 2998 > 100 µM | SK-MEL-28 > 100 µM | UACC-62 > 100 µM | NCI-H23 > 100 µM | A498 > 100 µM | LOX IMVI > 100 µM | SNB-19 > 100 µM | SK-MEL-5 > 100 µM | IGROV-1 > 100 µM | M14 > 100 µM | Malme-3M > 100 µM

COc1cc2c(c3c1C=CCO3)C(=O)c1ccccc1C2=O
inactive: RPMI-8226 32.8 µM | MOLT-4 23.6 µM | COLO 205 19.6 µM | NCI-H460 39.8 µM | SW-620 30.4 µM | HCC 2998 50.2 µM | SK-MEL-28 > 100 µM | UACC-62 47.4 µM | NCI-H23 > 100 µM | LOX IMVI 28.6 µM | SNB-19 45.3 µM | SK-MEL-5 24.7 µM | IGROV-1 26.8 µM | HL-60 19.3 µM | M14 82 µM | Malme-3M > 100 µM

C/C(=N\N(C)C)C(CN(C)C)C(c1ccccc1)c1c(O)c2ccccc2oc1=O (stereo unspecified)
inactive: RPMI-8226 > 100 µM | MOLT-4 > 100 µM | COLO 205 > 100 µM | NCI-H460 > 100 µM | SW-620 > 100 µM | HCC 2998 > 100 µM | SK-MEL-28 > 100 µM | UACC-62 > 100 µM | NCI-H23 > 100 µM | LOX IMVI > 100 µM | SNB-19 > 100 µM | SK-MEL-5 > 100 µM | IGROV-1 > 100 µM | HL-60 > 100 µM | M14 > 100 µM | Malme-3M > 100 µM

NC(=O)C1C(=O)Oc2cccnc21 (stereo unspecified)
inactive: RPMI-8226 > 100 µM | MOLT-4 > 100 µM | COLO 205 > 100 µM | NCI-H460 86.7 µM | SW-620 83 µM | SK-MEL-28 > 100 µM | UACC-62 > 100 µM | NCI-H23 > 100 µM | LOX IMVI > 100 µM | SNB-19 > 100 µM | SK-MEL-5 > 100 µM | IGROV-1 > 100 µM | M14 > 100 µM | Malme-3M > 100 µM

Cc1ccc2c(c1)C1(C)OC(CC(N)C1O)O2 (stereo unspecified)
inactive: RPMI-8226 > 100 µM | MOLT-4 > 100 µM | COLO 205 > 100 µM | NCI-H460 > 100 µM | SW-620 > 100 µM | SK-MEL-28 > 100 µM | UACC-62 > 100 µM | NCI-H23 > 100 µM | LOX IMVI > 100 µM | SNB-19 > 100 µM | SK-MEL-5 > 100 µM | IGROV-1 > 100 µM | HL-60 > 100 µM | M14 > 100 µM | Malme-3M > 100 µM

CC(=O)Oc1c(C)n(CCCl)ccc1=O
inactive: RPMI-8226 > 100 µM | MOLT-4 > 100 µM | COLO 205 > 100 µM | NCI-H460 44.6 µM | SK-MEL-28 > 100 µM | UACC-62 > 100 µM | A498 > 100 µM | LOX IMVI > 100 µM | SNB-19 > 100 µM | SK-MEL-5 > 100 µM | HL-60 > 100 µM | M14 > 100 µM | Malme-3M > 100 µM

CC(C#N)c1cn(S(=O)(=O)c2ccccc2)c2ccccc12 (stereo unspecified)
inactive: RPMI-8226 38.5 µM | MOLT-4 35.9 µM | COLO 205 > 100 µM | NCI-H460 61.7 µM | SW-620 > 100 µM | HCC 2998 76.7 µM | SK-MEL-28 60.7 µM | UACC-62 55.1 µM | NCI-H23 39.9 µM | SNB-19 42.9 µM | SK-MEL-5 16.2 µM | IGROV-1 78.5 µM | HL-60 26 µM | M14 33.7 µM | Malme-3M 35.7 µM

CC1=CC(/C=C(\C)CCCc2ccoc2)C2(OC(=O)C(C)=C2O)[C@H]2C1CC[C@@H]2C (stereo partly specified)
inactive: RPMI-8226 13.3 µM | MOLT-4 19.2 µM | COLO 205 21.9 µM | SW-620 33.6 µM | HCC 2998 29.9 µM | SK-MEL-28 27.6 µM | UACC-62 14.4 µM | NCI-H23 20.5 µM | A498 15.5 µM | LOX IMVI 21.8 µM | SNB-19 11.9 µM | SK-MEL-5 20.3 µM | IGROV-1 32.3 µM | M14 23.1 µM | Malme-3M 26.6 µM

FC1OC2OC1C(OCc1ccccc1)C(OCc1ccccc1)C2OCc1ccccc1 (stereo unspecified)
inactive: RPMI-8226 22.9 µM | MOLT-4 22.8 µM | COLO 205 61.9 µM | NCI-H460 > 100 µM | SW-620 40.6 µM | SK-MEL-28 33.4 µM | UACC-62 30.1 µM | NCI-H23 > 100 µM | A498 > 100 µM | LOX IMVI 43.8 µM | SNB-19 84.9 µM | SK-MEL-5 45.6 µM | IGROV-1 34.6 µM | HL-60 24.9 µM | M14 28.1 µM | Malme-3M 48.3 µM
